Measured values: ChEMBL document CHEMBL5226302, “Small-Molecule Inhibitors Targeting the Canonical WNT Signaling Pathway for the Treatment of Cancer” (J Med Chem, 2021)
pIC50, pKd: −log10 of the molar value. ≈ marks a conversion by molar mass, not a printed value. Values belong to the compound of their own block, whether it stands above or below them.

Columns and labels:
[1] = Clearance in human liver microsomes; assay type: ADME, Microsome; conditions: read-out: CLH
[2] = Clearance in mouse liver microsomes; assay type: ADME, Microsome; conditions: read-out: CLH
[3] = Solubility of compound at pH 7.4; assay type: physicochemical; conditions: buffer
Catenin beta-1 [4] = target: Catenin beta-1 (Homo sapiens, UniProt P35222); assay: Binding affinity to human beta catenin double mutant assessed as dissociation constant by alpha assay
HEK293 [5] = assay: Antitumor activity against human HEK293 cells in CB17-SCID xenografted mouse model at 150 mg/kg relative to control; assay type: functional
HEK293 [6] = assay: Antitumor activity against human HEK293 cells in CB17-SCID xenografted mouse model at 300 mg/kg relative to control; assay type: functional
COLO 320 [7] = assay: Antiproliferative activity against human COLO 320 assessed as growth inhibition measured after 24 hrs; assay type: functional
[8] = Oral bioavailability in rat at 30 mg/kg; assay type: ADME, organism-based; conditions: in vivo
COLO 320 [9] = assay: Antitumor activity against human COLO 320 cells xenografted mouse model assessed as tumor growth inhibition at 300 mg/kg relative to control; assay type: functional; conditions: read-out: TGI
[10] = target: T1, Poly [ADP-ribose] polymerase tankyrase-1 (Homo sapiens, UniProt O95271); assay: Inhibition of human TNKS1 (1030 to 1317 residues) measured after 20 hrs
T1 sequence (O95271 whole entry): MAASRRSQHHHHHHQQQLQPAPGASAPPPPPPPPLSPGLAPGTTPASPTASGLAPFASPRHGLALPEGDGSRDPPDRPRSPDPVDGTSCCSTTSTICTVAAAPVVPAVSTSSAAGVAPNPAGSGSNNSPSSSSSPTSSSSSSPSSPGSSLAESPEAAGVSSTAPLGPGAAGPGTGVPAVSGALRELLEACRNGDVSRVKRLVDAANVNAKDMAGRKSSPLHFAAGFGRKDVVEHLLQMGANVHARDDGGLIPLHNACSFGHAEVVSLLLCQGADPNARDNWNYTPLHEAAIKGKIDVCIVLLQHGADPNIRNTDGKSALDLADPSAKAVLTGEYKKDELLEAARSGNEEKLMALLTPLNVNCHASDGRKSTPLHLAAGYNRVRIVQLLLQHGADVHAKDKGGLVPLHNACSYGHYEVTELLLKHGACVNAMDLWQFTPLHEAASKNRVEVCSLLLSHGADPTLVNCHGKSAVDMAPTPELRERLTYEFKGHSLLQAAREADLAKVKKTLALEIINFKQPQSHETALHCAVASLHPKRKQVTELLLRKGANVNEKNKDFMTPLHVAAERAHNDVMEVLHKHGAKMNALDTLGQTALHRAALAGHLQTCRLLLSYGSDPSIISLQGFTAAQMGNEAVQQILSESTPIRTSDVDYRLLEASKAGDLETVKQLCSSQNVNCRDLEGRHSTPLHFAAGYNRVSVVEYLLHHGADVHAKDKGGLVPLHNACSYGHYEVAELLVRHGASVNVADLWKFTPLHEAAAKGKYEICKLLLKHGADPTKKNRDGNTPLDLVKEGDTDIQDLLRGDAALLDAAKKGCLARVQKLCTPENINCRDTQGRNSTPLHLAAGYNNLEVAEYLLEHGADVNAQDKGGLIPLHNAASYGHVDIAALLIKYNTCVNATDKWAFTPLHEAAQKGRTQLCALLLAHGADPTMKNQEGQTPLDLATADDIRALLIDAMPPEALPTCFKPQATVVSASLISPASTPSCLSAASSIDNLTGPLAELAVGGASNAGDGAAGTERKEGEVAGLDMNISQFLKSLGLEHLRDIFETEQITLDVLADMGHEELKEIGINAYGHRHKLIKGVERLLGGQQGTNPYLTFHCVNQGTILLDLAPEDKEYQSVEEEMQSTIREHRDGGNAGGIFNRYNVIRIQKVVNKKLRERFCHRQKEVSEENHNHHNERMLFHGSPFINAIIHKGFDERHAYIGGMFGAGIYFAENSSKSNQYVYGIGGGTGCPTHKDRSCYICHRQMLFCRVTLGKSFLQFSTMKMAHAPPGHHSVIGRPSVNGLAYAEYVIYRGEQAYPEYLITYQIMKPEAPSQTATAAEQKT

[11] = target: T2, Poly [ADP-ribose] polymerase tankyrase-2 (Homo sapiens, UniProt Q9H2K2); assay: Inhibition of human TNKS2 (873 to 1162 residues) measured after 15 hrs in presence of NAD+ by fluorescence assay
T2 sequence (Q9H2K2 whole entry): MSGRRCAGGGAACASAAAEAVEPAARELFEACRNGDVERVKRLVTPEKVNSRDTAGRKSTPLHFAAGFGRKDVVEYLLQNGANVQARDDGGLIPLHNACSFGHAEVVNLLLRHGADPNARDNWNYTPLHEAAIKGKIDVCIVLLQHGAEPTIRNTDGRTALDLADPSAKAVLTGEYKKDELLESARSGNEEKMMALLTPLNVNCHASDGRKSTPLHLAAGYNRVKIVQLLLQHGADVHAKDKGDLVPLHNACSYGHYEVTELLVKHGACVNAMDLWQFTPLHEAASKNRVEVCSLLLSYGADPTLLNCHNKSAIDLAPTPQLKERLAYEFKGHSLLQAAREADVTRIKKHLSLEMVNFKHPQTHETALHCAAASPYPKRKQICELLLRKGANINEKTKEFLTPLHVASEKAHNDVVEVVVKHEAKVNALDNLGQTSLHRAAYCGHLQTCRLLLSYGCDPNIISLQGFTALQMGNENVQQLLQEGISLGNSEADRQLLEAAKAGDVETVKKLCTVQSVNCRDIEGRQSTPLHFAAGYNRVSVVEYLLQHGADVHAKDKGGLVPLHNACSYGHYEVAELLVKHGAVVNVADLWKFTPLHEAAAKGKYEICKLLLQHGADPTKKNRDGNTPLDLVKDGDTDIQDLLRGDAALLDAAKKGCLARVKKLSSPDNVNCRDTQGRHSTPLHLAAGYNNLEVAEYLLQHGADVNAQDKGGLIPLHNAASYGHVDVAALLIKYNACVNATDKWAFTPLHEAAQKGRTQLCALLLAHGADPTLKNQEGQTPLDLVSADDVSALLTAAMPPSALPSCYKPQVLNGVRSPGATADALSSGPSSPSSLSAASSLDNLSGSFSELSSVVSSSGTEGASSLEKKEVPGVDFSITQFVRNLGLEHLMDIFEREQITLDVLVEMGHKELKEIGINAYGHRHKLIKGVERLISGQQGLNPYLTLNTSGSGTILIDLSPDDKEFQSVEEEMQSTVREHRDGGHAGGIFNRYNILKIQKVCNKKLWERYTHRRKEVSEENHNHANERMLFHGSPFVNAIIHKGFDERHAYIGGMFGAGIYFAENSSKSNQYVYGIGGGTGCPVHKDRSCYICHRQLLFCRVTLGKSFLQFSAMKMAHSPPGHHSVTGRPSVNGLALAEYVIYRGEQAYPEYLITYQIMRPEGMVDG

[12] = target: Poly [ADP-ribose] polymerase 1 (Homo sapiens, UniProt P09874); assay: Inhibition of human recombinant PARP1 incubated for 30 mins in the presence of NAD
Chain of Poly [ADP-ribose] polymerase 1 (P09874 whole entry): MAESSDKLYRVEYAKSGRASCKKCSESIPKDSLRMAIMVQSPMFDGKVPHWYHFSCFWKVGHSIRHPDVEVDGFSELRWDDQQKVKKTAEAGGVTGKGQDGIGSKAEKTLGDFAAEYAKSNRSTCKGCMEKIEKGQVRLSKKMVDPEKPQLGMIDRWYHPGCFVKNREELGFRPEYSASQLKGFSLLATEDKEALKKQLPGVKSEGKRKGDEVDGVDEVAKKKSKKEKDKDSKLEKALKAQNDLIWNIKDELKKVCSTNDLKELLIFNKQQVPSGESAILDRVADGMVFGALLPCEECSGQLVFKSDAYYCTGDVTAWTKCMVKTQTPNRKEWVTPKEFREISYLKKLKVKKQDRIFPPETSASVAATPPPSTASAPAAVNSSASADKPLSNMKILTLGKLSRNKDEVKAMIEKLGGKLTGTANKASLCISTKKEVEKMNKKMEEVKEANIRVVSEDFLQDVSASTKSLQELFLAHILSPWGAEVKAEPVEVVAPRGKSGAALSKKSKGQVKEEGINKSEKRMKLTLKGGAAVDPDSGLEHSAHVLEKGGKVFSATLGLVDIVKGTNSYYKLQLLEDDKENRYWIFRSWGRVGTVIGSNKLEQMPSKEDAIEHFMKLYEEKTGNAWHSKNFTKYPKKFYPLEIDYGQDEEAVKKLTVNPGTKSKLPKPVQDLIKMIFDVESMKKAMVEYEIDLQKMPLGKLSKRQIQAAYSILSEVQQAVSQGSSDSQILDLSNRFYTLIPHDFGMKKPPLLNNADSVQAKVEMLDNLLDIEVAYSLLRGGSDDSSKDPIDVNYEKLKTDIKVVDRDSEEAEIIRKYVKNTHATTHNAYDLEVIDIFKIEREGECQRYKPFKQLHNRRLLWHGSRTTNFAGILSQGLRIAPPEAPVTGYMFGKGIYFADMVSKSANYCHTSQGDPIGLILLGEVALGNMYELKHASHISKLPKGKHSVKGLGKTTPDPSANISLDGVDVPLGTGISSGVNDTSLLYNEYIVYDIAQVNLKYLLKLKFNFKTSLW

[13] = target: Poly [ADP-ribose] polymerase 2 (Homo sapiens, UniProt Q9UGN5); assay: Inhibition of PARP2 (unknown origin) using NAD as substrate incubated for 1 min
Chain of Poly [ADP-ribose] polymerase 2 (Q9UGN5 whole entry): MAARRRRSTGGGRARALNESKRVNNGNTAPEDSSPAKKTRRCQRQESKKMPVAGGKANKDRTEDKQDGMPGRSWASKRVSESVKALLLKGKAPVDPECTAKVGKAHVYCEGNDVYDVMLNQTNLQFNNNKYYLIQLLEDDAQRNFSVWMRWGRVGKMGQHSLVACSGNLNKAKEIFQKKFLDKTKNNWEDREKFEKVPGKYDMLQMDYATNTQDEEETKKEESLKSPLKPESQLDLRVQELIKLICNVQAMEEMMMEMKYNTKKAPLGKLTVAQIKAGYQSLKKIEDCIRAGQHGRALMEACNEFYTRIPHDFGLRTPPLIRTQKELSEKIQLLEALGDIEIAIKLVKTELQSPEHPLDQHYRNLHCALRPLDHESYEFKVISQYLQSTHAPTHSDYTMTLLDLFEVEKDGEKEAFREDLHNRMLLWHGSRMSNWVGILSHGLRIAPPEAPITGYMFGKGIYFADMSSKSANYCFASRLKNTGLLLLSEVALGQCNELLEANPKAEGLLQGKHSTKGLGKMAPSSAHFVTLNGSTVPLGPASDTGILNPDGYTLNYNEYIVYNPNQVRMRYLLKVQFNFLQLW

Catenin beta-1 [14] = target: T3, Catenin beta-1 (Homo sapiens, UniProt P35222)
T3 sequence (P35222 whole entry): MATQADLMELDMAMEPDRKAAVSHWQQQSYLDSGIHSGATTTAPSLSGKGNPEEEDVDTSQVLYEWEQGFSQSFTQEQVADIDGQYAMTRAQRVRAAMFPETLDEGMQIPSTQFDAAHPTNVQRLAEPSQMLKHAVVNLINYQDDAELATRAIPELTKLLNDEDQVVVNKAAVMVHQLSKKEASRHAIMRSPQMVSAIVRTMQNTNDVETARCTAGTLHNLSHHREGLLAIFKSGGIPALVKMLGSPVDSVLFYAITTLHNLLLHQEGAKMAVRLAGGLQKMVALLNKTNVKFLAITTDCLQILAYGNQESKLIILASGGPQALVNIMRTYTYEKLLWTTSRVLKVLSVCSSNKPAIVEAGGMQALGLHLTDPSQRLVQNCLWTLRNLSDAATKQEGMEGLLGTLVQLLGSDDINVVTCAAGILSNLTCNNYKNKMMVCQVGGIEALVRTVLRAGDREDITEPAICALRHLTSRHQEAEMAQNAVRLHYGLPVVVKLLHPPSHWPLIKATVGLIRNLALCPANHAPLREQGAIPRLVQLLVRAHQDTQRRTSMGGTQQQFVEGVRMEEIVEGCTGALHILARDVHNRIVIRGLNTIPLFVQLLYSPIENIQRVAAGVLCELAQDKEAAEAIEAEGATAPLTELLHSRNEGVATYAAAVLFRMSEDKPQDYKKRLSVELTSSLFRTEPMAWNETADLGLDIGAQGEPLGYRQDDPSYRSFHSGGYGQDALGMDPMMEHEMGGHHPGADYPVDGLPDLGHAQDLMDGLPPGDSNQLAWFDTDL

[15] = Half life in mouse plasma; assay type: ADME, cell-free

SMILES: CC1(C)OC(=O)N(c2ccc(-c3cnc(N)c(-c4ncccn4)c3)cc2)[C@H]1c1ccccc1
microsomal CLint [1]: 33 µL/min/mg
microsomal CLint [2]: 48 µL/min/mg

SMILES: O=C(Nc1ccc(-c2ccc(F)cc2)c(O[C@H]2CCNC2)c1)c1ccc(O[C@H]2CCNC2)c(-c2ccc(F)c(F)c2)c1
pKd (Catenin beta-1 [4]): 7.01

SMILES: COc1ccc(-n2c(SCc3nc(-c4ccc(C)cc4)no3)nnc2-c2ccncc2)cc1
Activity (HEK293 [5]): 33%
Activity (HEK293 [6]): 35%

SMILES: On1ncc2cc(CCc3nn[nH]n3)ccc21
pIC50 (Catenin beta-1 [14]): 6.30

SMILES: CC1(C)OC(=O)N(c2ccc(C(=O)Nc3cccc4cccnc34)cc2)[C@H]1c1ccccc1
half-life [15]: 5.2 h

Further lines, with some results ahead:

solubility [3]: 72 µg/mL (≈ 211 µM)
SMILES: COc1ccccc1N1CCN(c2nc3c(c(=O)[nH]2)CCCC3)CC1

GI50 (COLO 320 [7]): 230 nM
SMILES: C[C@@H]1CN(c2cc(F)c3c(c2)N(C)C(=O)C32CCN(c3nc4c(c(=O)[nH]3)CCCN4C)CC2)C[C@H](C)O1

bioavailability [8]: 60%
SMILES: O=c1[nH]c(N2CCC3(CC2)CN(CCO)c2cc(F)cc(F)c23)nc2c1CCCC2
inhibition in vivo at 300 mg/kg (COLO 320 [9]): 52%

pIC50 [10]: 7.52
pIC50 [11]: 8.29
pIC50 [12]: < 5.00
pIC50 [13]: < 5.00
SMILES: COc1cccc2c(=O)[nH]c(-c3ccc(C)cc3)cc12
